Where “and” joins values, the source holds several entries; their conditions need not be identical. Equal entries are not always repeated. Inconclusive results and toxic doses are left out. No stated cut-off is given here; in the data, active means T/C of 150% or more; inactive means T/C below 125%.
Tested on: L1210 leukemia ip in BDF1 mice, survival T/C
Experiment: NCI In Vivo Anticancer Drug Screen. Data for tumor model L1210 Leukemia (intraperitoneal) in B6D2F1 (BDF1) mice
Conditions: endpoint: mean survival time, higher = longer survival
How it was run: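 Each compound was tested against a transplantable tumor grown in mice. The endpoint was survival, with treated animals benchmarked against vehicle controls as a simple ratio.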

[1] = dose: 100.0 mg/kg/injection, schedule: Q01DX009 (ip), vehicle: Klucel (hydroxypropylcellulose) (HPC)
[2] = dose: 200.0 mg/kg/injection, schedule: Q01DX009 (ip), vehicle: Klucel (hydroxypropylcellulose) (HPC)
[3] = dose: 400.0 mg/kg/injection, schedule: Q01DX009 (ip), vehicle: Klucel (hydroxypropylcellulose) (HPC)
[4] = dose: 100.0 mg/kg/injection, schedule: Q01DX001 (ip), vehicle: saline
[5] = dose: 200.0 mg/kg/injection, schedule: Q01DX001 (ip), vehicle: saline
[6] = dose: 400.0 mg/kg/injection, schedule: Q01DX001 (ip), vehicle: saline
[7] = dose: 50.0 mg/kg/injection, schedule: Q01DX009 (ip), vehicle: saline
[8] = dose: 100.0 mg/kg/injection, schedule: Q01DX009 (ip), vehicle: saline
[9] = dose: 200.0 mg/kg/injection, schedule: Q01DX009 (ip), vehicle: saline
[10] = dose: 100.0 mg/kg/injection, schedule: Q04DX003 (ip), vehicle: saline with Tween-80
[11] = dose: 200.0 mg/kg/injection, schedule: Q04DX003 (ip), vehicle: saline with Tween-80
[12] = dose: 400.0 mg/kg/injection, schedule: Q04DX003 (ip), vehicle: saline with Tween-80
[13] = dose: 100.0 mg/kg/injection, schedule: Q04DX003 (ip), vehicle: Klucel (hydroxypropylcellulose) (HPC)
[14] = dose: 200.0 mg/kg/injection, schedule: Q04DX003 (ip), vehicle: Klucel (hydroxypropylcellulose) (HPC)
[15] = dose: 400.0 mg/kg/injection, schedule: Q04DX003 (ip), vehicle: Klucel (hydroxypropylcellulose) (HPC)
[16] = dose: 25.0 mg/kg/injection, schedule: Q01DX009 (ip), vehicle: Klucel (hydroxypropylcellulose) (HPC)
[17] = dose: 100.0 mg/kg/injection, schedule: Q01DX009 (ip), vehicle: saline with Tween-80
[18] = dose: 200.0 mg/kg/injection, schedule: Q01DX009 (ip), vehicle: saline with Tween-80
[19] = dose: 400.0 mg/kg/injection, schedule: Q01DX009 (ip), vehicle: saline with Tween-80

Measured: T/C

CC(=Nc1cccc2ccccc12)c1c(O)cc(C)oc1=O
inactive: [1] 100 % of control | dose: 100.0 mg/kg/injection, schedule: Q04DX002 (ip), vehicle: Klucel (hydroxypropylcellulose) (HPC) 98 % of control | [2] 95 % of control | dose: 200.0 mg/kg/injection, schedule: Q04DX002 (ip), vehicle: Klucel (hydroxypropylcellulose) (HPC) 98 % of control | [3] 92 % of control | dose: 400.0 mg/kg/injection, schedule: Q04DX002 (ip), vehicle: Klucel (hydroxypropylcellulose) (HPC) 95 % of control

O/N=C1/CCCCc2ccccc21
inactive: [4] 105 % of control | [5] 110 % of control | [6] 96 % of control

Cc1cc(N=C2C=C(Br)C(=O)C(Br)=C2)cc(CN(CC(=O)O)CC(=O)O)c1O
inactive: [4] 105 % of control | [5] 111 % of control | [6] 100 % of control

CN(C)[C@@H]1C(=O)C(C(=O)NCNC2(C(=O)O)CCCC2)=C(O)[C@@]2(O)C(=O)C3=C(O)c4c(O)cccc4[C@@](C)(O)[C@H]3C[C@@H]12
inactive: dose: 62.0 mg/kg/injection, schedule: Q01DX Z (ip), vehicle: saline 95 % of control | dose: 125.0 mg/kg/injection, schedule: Q01DX Z (ip), vehicle: saline 98 % of control | dose: 250.0 mg/kg/injection, schedule: Q01DX Z (ip), vehicle: saline 114 % of control

CC(=O)Nc1ccc(CCCCc2cccc(C#N)c2)cc1
inactive: [7] 95 % of control | [8] 100 % of control | [9] 97 % of control

COc1ccc2c(c1)CC/C(=C\c1ccccn1)C2=O
inactive: dose: 100.0 mg/kg/injection, schedule: Q04DX003 (ip), vehicle: carboxymethylcellulose (CMC) 98 % of control | dose: 200.0 mg/kg/injection, schedule: Q04DX003 (ip), vehicle: carboxymethylcellulose (CMC) 97 % of control | dose: 400.0 mg/kg/injection, schedule: Q04DX003 (ip), vehicle: carboxymethylcellulose (CMC) 98 % of control

O=[N+]([O-])c1ccc(N=C(Cl)c2ccccc2)cc1
inactive: [10] 98 % of control | [11] 98 % of control | [12] 104 % of control

O=P(O)(Oc1ccccc1)c1ccccc1
inactive: [4] 107 % of control | [5] 105 % of control | [6] 100 % of control

CSc1ccc(/C=C/c2ccc([N+](=O)[O-])cc2)cc1
inactive: [1] 97 % of control | [13] 91 % of control | [2] 88 % of control | [14] 93 % of control | [3] 92 % of control | [15] 88 % of control

c1ccc2c(c1)CCc1ccccc1CN(CCN1CCCC1)C2
inactive: [16] 96 % of control | [1] 99 % of control

CC1NC(=O)COC1c1ccccc1 (stereo unspecified)
inactive: [16] 101 % of control | dose: 50.0 mg/kg/injection, schedule: Q01DX009 (ip), vehicle: Klucel (hydroxypropylcellulose) (HPC) 95 % of control | [1] 101 % of control | [2] 96 % of control

C/C=C/C=C(\CC)C(=O)OCC
inactive: [7] 115 % of control | [17] 98 % of control | [8] 99 % of control | [18] 90 % of control | [9] 96 % of control | [19] 101 % of control

NC(CCSSCCC(N)C(=O)O)C(=O)O (stereo unspecified)
inactive: dose: 12.5 mg/kg/injection, schedule: Q04DX002 (ip), vehicle: Klucel (hydroxypropylcellulose) (HPC) 113 % of control | dose: 25.0 mg/kg/injection, schedule: Q04DX002 (ip), vehicle: Klucel (hydroxypropylcellulose) (HPC) 97 % of control | dose: 50.0 mg/kg/injection, schedule: Q04DX002 (ip), vehicle: Klucel (hydroxypropylcellulose) (HPC) 103 % of control | [13] 93 % of control | [14] 101 % of control | [15] 93 % of control

CC(=O)NN(C)C(C)=O
inactive: dose: 12.5 mg/kg/injection, schedule: Q04DX003 (ip), vehicle: saline 110 % of control | dose: 25.0 mg/kg/injection, schedule: Q04DX003 (ip), vehicle: saline 120 % of control | dose: 50.0 mg/kg/injection, schedule: Q04DX003 (ip), vehicle: saline 112 % of control | dose: 100.0 mg/kg/injection, schedule: Q04DX003 (ip), vehicle: saline 101 % of control | dose: 130.0 mg/kg/injection, schedule: Q04DX003 (ip), vehicle: saline 105 % of control | dose: 200.0 mg/kg/injection, schedule: Q04DX003 (ip), vehicle: saline 96 % of control and 120 % of control | dose: 300.0 mg/kg/injection, schedule: Q04DX003 (ip), vehicle: saline 100 % of control | dose: 400.0 mg/kg/injection, schedule: Q04DX003 (ip), vehicle: saline 106 % of control

C=C(Br)CNC(=O)Nc1ccccc1
inactive: [10] 98 % of control | [11] 95 % of control | [12] 102 % of control

C1CSCCS1
inactive: [1] 101 % of control | [2] 117 % of control | [3] 100 % of control

COc1c(NC(=O)C(Br)C(Br)C(=O)O)cccc1[N+](=O)[O-] (stereo unspecified)
inactive: [17] 100 % of control | [18] 95 % of control | [19] 95 % of control

CCOC(=O)Nc1cc(N)c(N)c(NC(c2ccccc2)c2ccccc2)n1
inactive: dose: 100.0 mg/kg/injection, schedule: Q01DX001 (ip), vehicle: other 102 % of control | dose: 200.0 mg/kg/injection, schedule: Q01DX001 (ip), vehicle: other 104 % of control | dose: 400.0 mg/kg/injection, schedule: Q01DX001 (ip), vehicle: other 100 % of control
